The record followed here is patent US9376420B2 (YUHAN CORPORATION, priority 2012, dated 2016).

The experiment deals with T1, human LXRβ (Homo sapiens, UniProt P55055).
T1 construct: expressed in transfected cells; host or cells: HEK293 cells (ATCC CRL-1573), transient transfection with pFA-hLXRβ/GAL4 and pUAS
T1 sequence (P55055 222-460 limits assumed): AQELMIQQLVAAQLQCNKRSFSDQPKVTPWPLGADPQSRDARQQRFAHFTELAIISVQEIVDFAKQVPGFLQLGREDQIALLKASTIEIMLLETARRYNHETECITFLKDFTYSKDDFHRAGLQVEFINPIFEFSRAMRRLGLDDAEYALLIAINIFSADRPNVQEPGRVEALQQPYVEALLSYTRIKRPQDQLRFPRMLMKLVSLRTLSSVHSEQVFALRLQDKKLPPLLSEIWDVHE
Description: Assay for Transcriptional Activity of LXRβ (GAL4-hLXRβ LBD luciferase reporter, transient transfection). In kind it is cell-based. The conditions noted are these: HEK293 cells transfected with pFA-hLXRβ/GAL4 and pUAS, 24 hours; for Emax: fold value in comparison with the control (DMSO-treated group); for EC50: increase of transcriptional activity of LXRβ, average of three independent tests. The essentials: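 EC50 values, averaged over three independent runs, come from a four-parameter fit of 9-point half-log curves spanning 0.01–50 μM. Luciferase output was read in lysed HEK293 cells 24 h after dosing at 37 °C, following transient transfection with a GAL4-human LXRβ LBD fusion plus GAL4-responsive reporter.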
In general terms: A reporter such as luciferase makes a cellular process visible.

One may read the EC50 as the midpoint of the concentration-response curve. A high value points to a less potent agent. Take `CN(C)S(=O)(=O)N1CCCN(c2ccc(C3CC(C(O)(C(F)(F)F)C(F)(F)F)=NN3c3ccc(F)cc3F)cc2)CC1` (stereo not drawn) [Example 411, 1-(2,4-difluoro-phenyl)-5-[4-(4-dimethylsulfamoyl-homopiperazin-1-yl)-phenyl]-3-[di-(trifluoromethyl)-hydroxy-methyl]-4,5-dihydro-1H-pyrazole]: the Emax is recorded as 62 fold and the EC50 is 461 nM. `CNCCCS(=O)(=O)c1cccc(-c2ccc(C3CC(C(O)(C(F)(F)F)C(F)(F)F)=NN3c3ccc(F)cc3F)cc2)c1` (stereo not drawn) [Example 412, 1-(2,4-difluoro-phenyl)-5-{3′-[3-(methyl-amino)-propane-1-sulfonyl]-biphenyl-4-yl}-3-[di-(trifluoromethyl)-hydroxy-methyl]-4,5-dihydro-1H-pyrazole] came in with an Emax of 53 fold and an EC50 of 727 nM. For the compound `CS(=O)(=O)c1cccc(-c2ccc(C3CC(C(O)(C(F)(F)F)C(F)(F)F)=NN3c3ccc(F)cc3F)cc2)c1` (stereo not drawn) [Example 413, 1-(2,4-difluoro-phenyl)-5-[3′-methanesulfonyl-biphenyl-4-yl]-3-[di-(trifluoromethyl)-hydroxy-methyl]-4,5-dihydro-1H-pyrazole], the Emax is 49 fold and a half-maximal effect (EC50) was put at 156 nM. `CSc1cccc(-c2ccc(C3CC(C(O)(C(F)(F)F)C(F)(F)F)=NN3c3ccccc3Cl)s2)c1` (stereo not drawn) [Example 414, 1-(2-chloro-phenyl)-5-{5-[3-(methylsulfanyl)-phenyl]-thiophen-2-yl}-3-[di-(trifluoromethyl)-hydroxy-methyl]-4,5-dihydro-1H-pyrazole] gave an Emax of 125 fold and an EC50 of 193 nM. Take `CSc1ccc(-c2ccc(C3CC(C(O)(C(F)(F)F)C(F)(F)F)=NN3c3ccccc3Cl)s2)cn1` (stereo not drawn) [Example 415, 1-(2-chloro-phenyl)-5-{5-[6-(methylsulfanyl)-pyridin-3-yl]-thiophen-2-yl}-3-[di-(trifluoromethyl)-hydroxy-methyl]-4,5-dihydro-1H-pyrazole]: the Emax came out at 100 fold and the EC50 came out at 346 nM.

For `CC(C)(C)OC(=O)N1CC=C(c2ccc(C3CC(C(O)(C(F)(F)F)C(F)(F)F)=NN3c3ccccc3Cl)s2)CC1` (stereo not drawn) [Example 416, 1-(2-chloro-phenyl)-5-[5-(1-BOC-1,2,3,6-tetrahydropyridin-4-yl)-thiophen-2-yl]-3-[di-(trifluoromethyl)-hydroxy-methyl]-4,5-dihydro-1H-pyrazole], the Emax turned out to be 90 fold and the midpoint of the response, the EC50, lay at 1110 nM. `Cl.OC(C1=NN(c2ccccc2Cl)C(c2ccc(C3=CCNCC3)s2)C1)(C(F)(F)F)C(F)(F)F` (stereo not drawn) [Example 417, 1-(2-chloro-phenyl)-5-[5-(1,2,3,6-tetrahydropyridin-4-yl)-thiophen-2-yl]-3-[di-(trifluoromethyl)-hydroxy-methyl]-4,5-dihydro-1H-pyrazole hydrochloride]: the Emax was 58 fold and the EC50 came out at 1030 nM. `CS(=O)(=O)N1CC=C(c2ccc(C3CC(C(O)(C(F)(F)F)C(F)(F)F)=NN3c3ccccc3Cl)s2)CC1` (stereo not drawn) [Example 418, 1-(2-chloro-phenyl)-5-[5-(1-methanesulfonyl-1,2,3,6-tetra hydropyridin-4-yl)-thiophen-2-yl]-3-[di-(trifluoromethyl)-hydroxy-methyl]-4,5-dihydro-1H-pyrazole] registered an Emax of 106 fold and an EC50 of 373 nM. In the case of `CS(=O)(=O)c1cccc(-c2ccc(C3CC(C(O)(C(F)(F)F)C(F)(F)F)=NN3c3ccccc3Cl)s2)c1` (stereo not drawn) [Example 419, 1-(2-chloro-phenyl)-5-{5-[3-(methylsulfonyl)-phenyl]-thiophen-2-yl}-3-[di-(trifluoromethyl)-hydroxy-methyl]-4,5-dihydro-1H-pyrazole], the Emax is 82 fold.

For `CS(=O)(=O)c1ccc(-c2ccc(C3CC(C(O)(C(F)(F)F)C(F)(F)F)=NN3c3ccccc3Cl)s2)cn1` (stereo not drawn) [Example 420, 1-(2-chloro-phenyl)-5-{5-[6-(methylsulfonyl)-pyridin-3-yl]-thiophen-2-yl}-3-[di-(trifluoromethyl)-hydroxy-methyl]-4,5-dihydro-1H-pyrazole], the Emax is 80 fold. As to `CSc1cccc(-c2cccc(N3N=C(C(O)(C(F)(F)F)C(F)(F)F)CC3c3ccccc3Cl)c2)c1` (stereo not drawn) [Example 431, 5-(2-chloro-phenyl)-1-[3′-(methylsulfanyl)-biphenyl-3-yl]-3-[di-(trifluoromethyl)-hydroxy-methyl]-4,5-dihydro-1H-pyrazole], the Emax was determined as 17 fold and the EC50 worked out at 2240 nM. In turn, `CC(C)(C)OC(=O)N1CC=C(c2cccc(N3N=C(C(O)(C(F)(F)F)C(F)(F)F)CC3c3ccccc3Cl)c2)CC1` (stereo not drawn) [Example 433, 5-(2-chloro-phenyl)-1-[3-(1-BOC-1,2,3,6-tetrahydropyridin-4-yl)-phenyl]-3-[di-(trifluoromethyl)-hydroxy-methyl]-4,5-dihydro-1H-pyrazole] displayed an Emax of 13 fold and an EC50 of 6600 nM. `CS(=O)(=O)c1cccc(-c2cccc(N3N=C(C(O)(C(F)(F)F)C(F)(F)F)CC3c3ccccc3Cl)c2)c1` (stereo not drawn) [Example 434, 5-(2-chloro-phenyl)-1-[3′-(methylsulfonyl)-biphenyl-3-yl]-3-[di-(trifluoromethyl)-hydroxy-methyl]-4,5-dihydro-1H-pyrazole]: the Emax was 30 fold and the 50% effective concentration (EC50) was determined as 354 nM. The compound `CS(=O)(=O)c1ccc(-c2cccc(N3N=C(C(O)(C(F)(F)F)C(F)(F)F)CC3c3ccccc3Cl)c2)cn1` (stereo not drawn) [Example 435, 5-(2-chloro-phenyl)-1-{3-[6-(methylsulfonyl)-pyridin-3-yl]-phenyl}-3-[di-(trifluoromethyl)-hydroxy-methyl]-4,5-dihydro-1H-pyrazole] registered an Emax of 25 fold and an EC50 of 965 nM. The compound `CS(=O)(=O)N1CC=C(c2cccc(N3N=C(C(O)(C(F)(F)F)C(F)(F)F)CC3c3ccccc3Cl)c2)CC1` (stereo not drawn) [Example 437, 5-(2-chloro-phenyl)-1-[3-(1-methylsulfonyl-1,2,3,6-tetrahydropyridin-4-yl)-phenyl]-3-[di-(trifluoromethyl)-hydroxy-methyl]-4,5-dihydro-1H-pyrazole] had an Emax of 13 fold and an EC50 of 932 nM. `O=S(=O)(C1CC1)N1CC=C(c2cccc(N3N=C(C(O)(C(F)(F)F)C(F)(F)F)CC3c3ccccc3Cl)c2)CC1` (stereo not drawn) [Example 438, 5-(2-chloro-phenyl)-1-[3-(1-cyclopropanesulfonyl-1,2,3,6-tetrahydropyridin-4-yl)-phenyl]-3-[di-(trifluoromethyl)-hydroxy-methyl]-4,5-dihydro-1H-pyrazole] registered an Emax of 6 fold and an EC50 of 1930 nM.
